Reference: patent publication US20190177440A1, “COMPOUND OR SALT THEREOF, ANTI-INFLAMMATORY AGENT, ANTI-CANCER AGENT AGAINST LUNG CANCER, METHOD OF PRODUCING COMPOUND OR SALTS THEREOF, METHOD OF TREATING INFLAMMATORY DISEASES AND METHOD OF TREATING LUNG CANCER” (TFK CO., LTD., priority 2016, published 2019)

What was measured:
NF-κB = assay: Nuclear NF-κB level in RAW264.7 cells stimulated with LPSp (Example 5); assay type: cell-based, mouse; conditions: final 1, 100 and 10,000 ng/mL, then LPSp 100 ng/mL, FIG. 5
Experimental: The culture medium was added to mouse macrophage cells (RAW264.7, ATCC) to prepare solutions at concentrations of 1.067×10^6 cells/mL. The solutions were seeded in 6 well plates in 3 mL portions, i.e., 3.2×10^6 cells/3 mL/well. After seeding, the test solution was incubated at 37° C. in a 5% CO2 for 2 hours, and 30 μL of the test solution was added to each well. After adding the test solution, the test solution was incubated at 37° C. in a 5% CO2 for 24 hours. The culture supernatant of each of the wells was then collected in a 15 mL tube. Then, 1 mL of the fresh culture solution was added to each of the wells, and after spreading over the entire well, the operation of collecting the culture solution into the 15 mL tube was repeated twice. Thereafter, the culture solution collected in the 15 mL tube was centrifuged at 1,000 rpm for 3 minutes, the supernatant was removed, and 3 mL of a new culture solution at 37° C. was added to suspend the culture solution, and centrifuged again under the same conditions. After centrifugation, the supernatant was removed, and 2 mL of the above-mentioned culture solution at 37° C. was added to the precipitate and suspended. Then, 2 mL of the suspension was added to each well to which 1 mL of a new culture medium had been added in advance. Thereafter, 30 μL of a new culture medium was added (hereinafter, this step is referred to as a “culture medium addition step”). After incubation at 37° C. in a 5% CO2 for 30 minutes, the culture supernatants of the wells were collected in 15-mL tubes, centrifuged at 1,000 rpm for 3 minutes, and the supernatants were removed by an aspirator. In addition, to the wells of the 6-well plate from which the culture supernatant was removed, 3 mL of cooled PBS (Phosphate buffered saline)/Phosphatase Inhibitors solution was added, the cells were removed by pipetting, and the cell suspension was added to the 15-mL tubes. The 15 mL tube was centrifuged at 1,000 rpm for 3 minutes, the supernatant was removed by an aspirator, and 0.5 mL of the cooled PB S/Phosphatase Inhibitors solution was added to the 15 mL tube and suspended to prepare a cell suspension. Nucleoproteins were extracted from the cell suspensions using Nuclear Extract kit (manufactured by Active Motif).
The amount of NF-κB in the nucleoprotein was confirmed by measuring the absorbance using the Trans AM NF KB p65 kit (manufactured by Active Motif).
In this example, an experiment was conducted in the same manner as in Example 4 except for the following two points, and the amount of NF-κB in the nucleoprotein was confirmed by measuring the absorbance. That is, in this example, three types of test solutions were used as the test solution, in which the concentration of the purified product was 100 ng/mL, 10,000 ng/mL, and 1,000,000 ng/mL. […]

IL-6 = IL-6 production in THP-1 cells stimulated with LPSp, with or without PPARγ inhibitor GW9662 (Example 8-1); assay type: cell-based, human; conditions: final 100, 1,000 and 10,000 ng/mL, LPSp 100 ng/mL, GW9662- (PPARγ not inhibited), FIG. 8
Experimental: In the same manner as “(1) Preparation of test solution” in Example 3, a solution having a concentration of the purified product of 20,000 ng/mL was prepared, and the solution was serially diluted with a culture solution having the following composition, thereby obtaining a total of three test solutions having a concentration of 400 ng/mL, 4,000 ng/mL, and 40000 ng/mL. Since the three test solutions are diluted four-fold when added to the cells, the final concentrations of the purified products are 100 ng/mL, 1,000 ng/mL, and 10,000 ng/mL, respectively.
The culture medium was added to cells derived from human peripheral blood monocytes (THP-1, manufactured by DS Pharma Biomedical Co., Ltd.) to prepare solutions in which the concentrations of the cells were 4×10^5 cells/mL. The solutions were seeded in 24 well plates in 500 μL portions, i.e., 2.0×10^5 cells/500 μL/well. After seeding, 250 μL of the culture medium or 250 μL of the culture medium containing 40 μmol/L of GW9662 (manufactured by Wako Pure Chemical Industries, Ltd.) was added to the wells. The GW9662 is an inhibitor of PPARγ (Peroxisome proliferator-activated receptor γ) which is one type of nuclear receptor. After the addition, the mixture was incubated at 37° C. in a 5% CO2 for 1 hour. Thereafter, 250 μl of the test solution was added to each well, and the wells were incubated at 37° C. in a 5% CO2 for 22 hours. After culturing, the culture supernatant of each well was collected in a 2 mL tube. A new 0.5 mL of the culture medium was added to each well, spread over the whole well, and collected in the 2 mL tube. To each empty well was added 0.49 mL of fresh culture medium. The culture solution collected in the 2 mL tube was centrifuged at 1,000 rpm for 5 minutes, the supernatant was removed, and 1 mL of the fresh culture solution was added to suspend, and centrifuged again under the same conditions. After centrifugation, the supernatant was removed and 0.49 mL of culture medium in each well was added to the 2 mL tube, suspended and returned to each well. Then, 250 μL of the culture medium or 250 μL of the culture medium containing 40 μmol/L of the above GW9662 was added to the wells, and the wells were cultured at 37° C. in a 5% CO2 for 1 hour. After the incubation, 250 μL of the culture medium containing LPSp was added to the wells so that the final concentration of the LPSp was 100 ng/mL, and the wells were incubated at 37° C. in a 5% CO2 for 22 hours.
After culturing, the culture supernatants of the wells were collected in tubes, centrifuged, and the supernatants were collected in 1.5-mL tubes. The absorbance was measured using Human IL-6 ELISA MAX Deluxe (Biolegend Corporation), and the concentrations of Interleukin-6 (IL-6) were calculated.

`CCCCCC/C=C/CCCCCC(=O)OC(CCCCCCCCCCC)CC(=O)NC1C(OCC2OC(OP(=O)(O)O)C(NC(=O)CC(=O)CCCCCCCCCCC)C(OC(=O)CC(O)CCCCCCC)C2O)OC(COC2(C(=O)O)CC(OC3(C(=O)O)CC(O)C(OC4OC(C(=O)O)C(OC5OC(CO)C(O)C(O)C5O)C(O)C4O)C(C(O)CO)O3)C(OC3OC(CO)C(O)C(O)C3O)C(C(O)CO)O2)C(OP(=O)(O)O)C1OC(=O)CC(O)CCCCCCC` (centres unmarked) [Formula (B2)] was tested, and the “amount of NF-κB in the nucleoprotein (absorbance)” value (“amount of NF-κB” for short) (NF-κB) was “Equivalent results were obtained” and the “IL-6 concentration in culture supernatant” value (“IL-6 concentration” for short) (IL-6) was “Equivalent results were obtained”.
With `CCCCCC/C=C/CCCCCC(=O)OC(CCCCCCCCCCC)CC(=O)NC1C(OCC2OC(OP(=O)(O)O)C(NC(=O)CC(=O)CCCCCCCCCCC)C(OC(=O)CC(O)CCCCCCC)C2O)OC(COC2(C(=O)O)CC(OC3(C(=O)O)CC(OC4OC(C(=O)O)C(OC5OC(CO)C(O)C(O)C5O)C(O)C4O)C(O)C(C(O)CO)O3)C(OC3OC(COP(=O)(O)O)C(OC4OC(CO)C(O)C(O)C4O)C(O)C3O)C(C(O)CO)O2)C(OP(=O)(O)O)C1OC(=O)CC(O)CCCCCCC` (centres unmarked) [Formula (A1)] the “amount of NF-κB” value (NF-κB) was “Equivalent results were obtained” and the “IL-6 concentration” value (IL-6) was “Equivalent results were obtained”.
In the case of `CCCCCC/C=C/CCCCCC(=O)OC(CCCCCCCCCCC)CC(=O)NC1C(OCC2OC(OP(=O)(O)O)C(NC(=O)CC(=O)CCCCCCCCCCC)C(OC(=O)CC(O)CCCCCCC)C2O)OC(COC2(C(=O)O)CC(OC3(C(=O)O)CC(OC4OC(C(=O)O)C(OC5OC(CO)C(O)C(O)C5O)C(O)C4O)C(O)C(C(O)CO)O3)C(OC3OC(CO)C(O)C(O)C3O)C(C(O)CO)O2)C(OP(=O)(O)O)C1OC(=O)CC(O)CCCCCCC` (centres unmarked) [Formula (A2)], the “amount of NF-κB” value (NF-κB) is reported as “Equivalent results were obtained” and the “IL-6 concentration” value (IL-6) is reported as “Equivalent results were obtained”.
`CCCCCC/C=C/CCCCCC(=O)OC(CCCCCCCCCCC)CC(=O)NC1C(OCC2OC(OP(=O)(O)O)C(NC(=O)CC(=O)CCCCCCCCCCC)C(OC(=O)CC(O)CCCCCCC)C2O)OC(COC2(C(=O)O)CC(OC3(C(=O)O)CC(O)C(OC4OC(C(=O)O)C(OC5OC(CO)C(O)C(O)C5O)C(O)C4O)C(C(O)CO)O3)C(OC3OC(COP(=O)(O)O)C(OC4OC(CO)C(O)C(O)C4O)C(O)C3O)C(C(O)CO)O2)C(OP(=O)(O)O)C1OC(=O)CC(O)CCCCCCC` (centres unmarked) [Formula (B1)] was tested, and the “amount of NF-κB” value (NF-κB) was “Equivalent results were obtained” and the “IL-6 concentration” value (IL-6) was “Equivalent results were obtained”.
